Measured values published in patent US20080227797A1, “Pyridopyrimidine Derivatives as Pde4 Inhibitors for the Treatment of Inflammatory and Immune Diseases” (ASTRAZENECA AB, priority 2005, published 2008).

The compounds below were run against recombinant Human Phosphodiesterase B2 (PDE4B2) (Homo sapiens, UniProt Q07343) (assay: Human Phosphodiesterase B2 Alpha Screen Assay). Conditions: cAMP substrate, Alpha Screen cAMP kit, 60 minutes at room temperature.
Type: biochemical
Procedure: Human Phosphodiesterase B2 Alpha Screen Assay
The assay uses recombinant Human Phosphodiesterase B2 (PDE4B2) produced in house (PrAZL0133), stored at −20° C. The substrate uses cAMP, part of the Alpha Screen cAMP kit (Perkin Elmer, Cat# 6760625M), stored at 4° C. The Alpha Screen kit also includes biotinylated cAMP, acceptor and donor beads.
The assay additions were as follows: Test compounds and controls were added to white 384-well flat-bottom plates (Greiner, Cat# 781075), 0.2 μl in 100% DMSO, followed by 10 μl PDE4B2 in reaction buffer. The reaction buffer constitution was: 50 mM Tris (pH 7.5), 8.3 mM MgCl2, 1.7 mM EGTA and 0.01% (w/v) Brij®35. The enzyme and the compounds were incubated at room temperature for 15 minutes. Then 10 μl cAMP in reaction buffer was added. The assay was stopped after 60 minutes incubation at room temperature by adding 10 μl acceptor beads in detection buffer with 40 mM EDTA. The detection buffer constitution was: 5 mM Tris (pH 7.5), 0.1% (w/v) BSA and 0.1% (v/v) Tween 20. This addition followed by an addition of 10 μl donor beads in detection buffer, with biotinylated cAMP. The plates were then incubated, dark at room temperature, for 5 hours followed by measurement on a Fusion™-α analyser. IC50 values (presented in Table 1) were determined using Xlfit curve fitting using model 205.

recombinant Human Phosphodiesterase B2 (PDE4B2), sequence (Q07343 1-564 isoform Q07343-2): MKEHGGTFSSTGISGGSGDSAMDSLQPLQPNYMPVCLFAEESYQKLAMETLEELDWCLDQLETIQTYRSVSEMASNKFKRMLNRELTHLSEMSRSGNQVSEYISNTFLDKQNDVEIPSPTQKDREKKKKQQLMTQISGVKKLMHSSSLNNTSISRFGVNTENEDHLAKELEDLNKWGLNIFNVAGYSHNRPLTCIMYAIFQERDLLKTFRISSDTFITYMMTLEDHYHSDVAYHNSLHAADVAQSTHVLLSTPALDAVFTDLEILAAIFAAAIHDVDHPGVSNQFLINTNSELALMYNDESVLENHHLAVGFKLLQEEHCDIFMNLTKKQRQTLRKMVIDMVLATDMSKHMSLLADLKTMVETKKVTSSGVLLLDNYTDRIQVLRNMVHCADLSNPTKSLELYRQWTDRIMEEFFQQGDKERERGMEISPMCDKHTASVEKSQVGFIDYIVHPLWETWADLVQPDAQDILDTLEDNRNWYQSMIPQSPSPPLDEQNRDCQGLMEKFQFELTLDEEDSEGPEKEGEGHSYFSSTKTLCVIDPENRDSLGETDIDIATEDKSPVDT

| SMILES | IC50 [nM] |
| --- | --- |
| O=C(N[C@H]1CC[C@@H](n2c(=O)c3cc(F)cnc3n(-c3ccc(F)c(F)c3)c2=O)CC1)C(O)c1ccccc1 (relative stereo) [Example 2, N-{cis-4-[1-(3,4-difluorophenyl)-6-fluoro-2,4-dioxo-1,4-dihydropyrido[2,3-d]pyrimidin-3(2H)-yl]cyclohexyl}-2-hydroxy-2-phenylacetamide] | 0.9 |
| Cc1ccc(O)c(C(=O)N[C@H]2CC[C@@H](N3C(=O)c4cc(F)cnc4N(c4ccc(F)c(F)c4)[S+]3[O-])CC2)c1 (relative stereo) [Example 46, N-{cis-4-[1-(3,4-Difluorophenyl)-6-fluoro-2-oxido-4-oxo-1,4-dihydro-3H-pyrido[2,3-c][1,2,6]thiadiazin-3-yl]cyclohexyl}-2-hydroxy-5-methylbenzamide] | 129 |
| CN1CCCC(C(=O)N[C@H]2CC[C@@H](n3c(=O)c4cc(F)cnc4n(-c4ccc(F)c(F)c4)c3=O)CC2)C1 (relative stereo) [Example 99, N-{cis-4-[1-(3,4-difluorophenyl)-6-fluoro-2,4-dioxo-1,4-dihydropyrido[2,3-d]pyrimidin-3(2H)-yl]cyclohexyl}-1-methylpiperidine-3-carboxamide] | 6.01 |
| O=C(N[C@H]1CC[C@@H](n2c(=O)c3cc(F)cnc3n(-c3ccc(F)c(F)c3)c2=O)CC1)c1cc(CO)ccc1O [Example 1, N-{cis-4-[1-(3,4-difluorophenyl)-6-fluoro-2,4-dioxo-1,4-dihydropyrido[2,3-d]pyrimidin-3(2H)-yl]cyclohexyl}-2-hydroxy-5-(hydroxymethyl)benzamide] | 4.9 |
| O=C(CO)N[C@H]1CC[C@@H](n2c(=O)c3cc(F)cnc3n(-c3ccc(F)c(F)c3)c2=O)CC1 [Example 3, N-{cis-4-[1-(3,4-difluorophenyl)-6-fluoro-2,4-dioxo-1,4-dihydropyrido[2,3-d]pyrimidin-3(2H)-yl]cyclohexyl}-2-hydroxyacetamide] | 16.3 |
| O=C(N[C@H]1CC[C@@H](n2c(=O)c3cc(F)cnc3n(-c3ccc(F)c(F)c3)c2=O)CC1)c1cc(Cl)ccc1O [Example 4, 5-chloro-N-{cis-4-[1-(3,4-difluorophenyl)-6-fluoro-2,4-dioxo-1,4-dihydropyrido[2,3-d]pyrimidin-3(2H)-yl]cyclohexyl}-2-hydroxybenzamide] | 5 |
| O=C(N[C@H]1CC[C@@H](n2c(=O)c3cc(F)cnc3n(-c3ccc(F)c(F)c3)c2=O)CC1)c1cccc(O)c1 [Example 5, N-{cis-4-[1-(3,4-difluorophenyl)-6-fluoro-2,4-dioxo-1,4-dihydropyrido[2,3-d]pyrimidin-3(2H)-yl]cyclohexyl}-3-hydroxybenzamide] | 2.2 |
| O=C(N[C@H]1CC[C@@H](n2c(=O)c3cc(F)cnc3n(-c3ccc(F)c(F)c3)c2=O)CC1)c1ccc(O)cc1 [Example 6, N-{cis-4-[1-(3,4-difluorophenyl)-6-fluoro-2,4-dioxo-1,4-dihydropyrido[2,3-d]pyrimidin-3(2H)-yl]cyclohexyl}-4-hydroxybenzamide] | 2.3 |
| COC(=O)c1ccccc1C(=O)N[C@H]1CC[C@@H](n2c(=O)c3cc(F)cnc3n(-c3ccc(F)c(F)c3)c2=O)CC1 [Example 7, methyl 2-[({cis-4-[1-(3,4-difluorophenyl)-6-fluoro-2,4-dioxo-1,4-dihydropyrido[2,3-d]pyrimidin-3(2H)-yl]cyclohexyl}amino)carbonyl]benzoate] | 3 |
| O=C(Cc1ccc(O)cc1)N[C@H]1CC[C@@H](n2c(=O)c3cc(F)cnc3n(-c3ccc(F)c(F)c3)c2=O)CC1 [Example 8, N-{cis-4-[1-(3,4-difluorophenyl)-6-fluoro-2,4-dioxo-1,4-dihydropyrido[2,3-d]pyrimidin-3(2H)-yl]cyclohexyl}-2-(4-hydroxyphenyl)acetamide] | 2.2 |
| Cc1ccc(C(=O)N[C@H]2CC[C@@H](n3c(=O)c4cc(F)cnc4n(-c4ccc(F)c(F)c4)c3=O)CC2)c(O)c1 [Example 9, N-{cis-4-[1-(3,4-difluorophenyl)-6-fluoro-2,4-dioxo-1,4-dihydropyrido[2,3-d]pyrimidin-3(2H)-yl]cyclohexyl}-2-hydroxy-4-methylbenzamide] | 1.3 |
| O=C(N[C@H]1CC[C@@H](n2c(=O)c3cc(F)cnc3n(-c3ccc(F)c(F)c3)c2=O)CC1)c1ccccc1O [Example 10, N-{cis-4-[1-(3,4-difluorophenyl)-6-fluoro-2,4-dioxo-1,4-dihydropyrido[2,3-d]pyrimidin-3(2H)-yl]cyclohexyl}-2-hydroxybenzamide] | 2.6 |
| O=C(N[C@H]1CC[C@@H](n2c(=O)c3cc(F)cnc3n(-c3ccc(F)c(F)c3)c2=O)CC1)c1ncccc1O [Example 11, N-{cis-4-[1-(3,4-difluorophenyl)-6-fluoro-2,4-dioxo-1,4-dihydropyrido[2,3-d]pyrimidin-3(2H)-yl]cyclohexyl}-3-hydroxypyridine-2-carboxamide] | 3.4 |
| O=C(N[C@H]1CC[C@@H](n2c(=O)c3cc(F)cnc3n(-c3ccc(F)c(F)c3)c2=O)CC1)c1ccc(O)c(Cl)c1 [Example 12, 3-chloro-N-{cis-4-[1-(3,4-difluorophenyl)-6-fluoro-2,4-dioxo-1,4-dihydropyrido[2,3-d]pyrimidin-3(2H)-yl]cyclohexyl}-4-hydroxybenzamide] | 2.2 |
| Cc1c(O)cccc1C(=O)N[C@H]1CC[C@@H](n2c(=O)c3cc(F)cnc3n(-c3ccc(F)c(F)c3)c2=O)CC1 [Example 13, N-{cis-4-[1-(3,4-difluorophenyl)-6-fluoro-2,4-dioxo-1,4-dihydropyrido[2,3-d]pyrimidin-3(2H)-yl]cyclohexyl}-3-hydroxy-2-methylbenzamide] | 3.2 |
| COc1cc(C(=O)N[C@H]2CC[C@@H](n3c(=O)c4cc(F)cnc4n(-c4ccc(F)c(F)c4)c3=O)CC2)ccc1O [Example 14, N-{cis-4-[1-(3,4-difluorophenyl)-6-fluoro-2,4-dioxo-1,4-dihydropyrido[2,3-d]pyrimidin-3(2H)-yl]cyclohexyl}-4-hydroxy-3-methoxybenzamide] | 1.5 |
| Cc1ccc(C(=O)N[C@H]2CC[C@@H](n3c(=O)c4cc(F)cnc4n(-c4ccc(F)c(F)c4)c3=O)CC2)cc1O [Example 15, N-{cis-4-[1-(3,4-difluorophenyl)-6-fluoro-2,4-dioxo-1,4-dihydropyrido[2,3-d]pyrimidin-3(2H)-yl]cyclohexyl}-3-hydroxy-4-methylbenzamide] | 1.3 |
| COc1cccc(O)c1C(=O)N[C@H]1CC[C@@H](n2c(=O)c3cc(F)cnc3n(-c3ccc(F)c(F)c3)c2=O)CC1 [Example 16, N-{cis-4-[1-(3,4-difluorophenyl)-6-fluoro-2,4-dioxo-1,4-dihydropyrido[2,3-d]pyrimidin-3(2H)-yl]cyclohexyl}-2-hydroxy-6-methoxybenzamide] | 2.1 |
| COc1cccc(C(=O)N[C@H]2CC[C@@H](n3c(=O)c4cc(F)cnc4n(-c4ccc(F)c(F)c4)c3=O)CC2)c1O [Example 17, N-{cis-4-[1-(3,4-difluorophenyl)-6-fluoro-2,4-dioxo-1,4-dihydropyrido[2,3-d]pyrimidin-3(2H)-yl]cyclohexyl}-2-hydroxy-3-methoxybenzamide] | 1.8 |
| O=C(N[C@H]1CC[C@@H](n2c(=O)c3cc(F)cnc3n(-c3ccc(F)c(F)c3)c2=O)CC1)c1ccc(Cl)cc1O [Example 18, 4-chloro-N-{cis-4-[1-(3,4-difluorophenyl)-6-fluoro-2,4-dioxo-1,4-dihydropyrido[2,3-d]pyrimidin-3(2H)-yl]cyclohexyl}-2-hydroxybenzamide] | 2.7 |
| COc1ccc(C(=O)N[C@H]2CC[C@@H](n3c(=O)c4cc(F)cnc4n(-c4ccc(F)c(F)c4)c3=O)CC2)c(O)c1 [Example 19, N-{cis-4-[1-(3,4-difluorophenyl)-6-fluoro-2,4-dioxo-1,4-dihydropyrido[2,3-d]pyrimidin-3(2H)-yl]cyclohexyl}-2-hydroxy-4-methoxybenzamide] | 2 |
| O=C(N[C@H]1CC[C@@H](n2c(=O)c3cc(F)cnc3n(-c3ccc(F)c(F)c3)c2=O)CC1)c1cc(F)ccc1O [Example 20, N-{cis-4-[1-(3,4-difluorophenyl)-6-fluoro-2,4-dioxo-1,4-dihydropyrido[2,3-d]pyrimidin-3(2H)-yl]cyclohexyl}-5-fluoro-2-hydroxybenzamide] | 3.6 |
| CC(C)C[C@H](O)C(=O)N[C@H]1CC[C@@H](n2c(=O)c3cc(F)cnc3n(-c3ccc(F)c(F)c3)c2=O)CC1 [Example 21, (2S)-N-{cis-4-[1-(3,4-difluorophenyl)-6-fluoro-2,4-dioxo-1,4-dihydropyrido[2,3-d]pyrimidin-3(2H)-yl]cyclohexyl}-2-hydroxy-4-methylpentanamide] | 3.6 |
| O=C(N[C@H]1CC[C@@H](n2c(=O)c3cc(F)cnc3n(-c3ccc(F)c(F)c3)c2=O)CC1)[C@H](O)C1CCCCC1 [Example 22, (2R)-2-cyclohexyl-N-{cis-4-[1-(3,4-difluorophenyl)-6-fluoro-2,4-dioxo-1,4-dihydropyrido[2,3-d]pyrimidin-3(2H)-yl]cyclohexyl}-2-hydroxyacetamide] | 1 |
| COC(=O)CCC(=O)N[C@H]1CC[C@@H](n2c(=O)c3cc(F)cnc3n(-c3ccc(F)c(F)c3)c2=O)CC1 [Example 23, methyl 4-({cis-4-[1-(3,4-difluorophenyl)-6-fluoro-2,4-dioxo-1,4-dihydropyrido[2,3-d]pyrimidin-3(2H)-yl]cyclohexyl}amino)-4-oxobutanoate] | 3.8 |
